Test results reported in ChEMBL document CHEMBL1201862, “PubChem BioAssay data set” (2004).
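Test compounds were applied to cells in 96-well plates for 48 hours at 5 doses. GI50: concentration for 50% inhibition of growth.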 Activity calls are given as the source filed them. No stated cut-off is given here; in the data, active = GI50 up to about 1.1 µM and inactive = higher.

Tests used:
Assay in all cases: DTP human tumour cell line panel, 48 h
CCRF-CEM = system: CCRF-CEM
OVCAR-4 = system: OVCAR-4
LOX IMVI = system: LOX IMVI
SF-295 = system: SF-295
COLO 205 = system: COLO 205
SK-MEL-28 = system: SK-MEL-28
NCI-H460 = system: NCI-H460
A549 = system: A549
HCT-15 = system: HCT-15
786-0 = system: 786-0
KM12 = system: KM12
EKVX = system: EKVX
SNB-75 = system: SNB-75
OVCAR-8 = system: OVCAR-8
OVCAR-5 = system: OVCAR-5
RXF 393 = system: RXF 393
SR = system: SR

SMILES	GI50 (CCRF-CEM)	GI50 (OVCAR-4)	GI50 (LOX IMVI)	GI50 (SF-295)	GI50 (COLO 205)	GI50 (SK-MEL-28)	GI50 (NCI-H460)	GI50 (A549)	GI50 (HCT-15) [µM]	GI50 (786-0)	GI50 (KM12)	GI50 (EKVX)	GI50 (SNB-75)	GI50 (OVCAR-8)	GI50 (OVCAR-5)	GI50 (RXF 393)	GI50 (SR)
Nc1ccc(C(=O)NN2C(=O)C(Cl)C2c2cc(Br)ccc2O)cc1 (stereo unspecified)	62.1 µM (inactive)	> 100 µM (inactive)	41.2 µM (inactive)	> 100 µM (inactive)	> 100 µM (inactive)	> 100 µM (inactive)	> 100 µM (inactive)	> 100 µM (inactive)	> 100	78.9 µM (inactive)	> 100 µM (inactive)	> 100 µM (inactive)	> 100 µM (inactive)	> 100 µM (inactive)	> 100 µM (inactive)	–	–
CSCCOC(=O)C(=[N+]=[N-])c1ccc([N+](=O)[O-])cc1	> 100 µM (inactive)	> 100 µM (inactive)	> 100 µM (inactive)	> 100 µM (inactive)	> 100 µM (inactive)	> 100 µM (inactive)	> 100 µM (inactive)	> 100 µM (inactive)	> 100	> 100 µM (inactive)	> 100 µM (inactive)	> 100 µM (inactive)	> 100 µM (inactive)	> 100 µM (inactive)	> 100 µM (inactive)	> 100 µM (inactive)	> 100 µM (inactive)
Cc1c2cc[n+](C)cc2c(C)c2c1[nH]c1ccc(Oc3ccccc3)cc12	1.38 µM (inactive)	2.56 µM (inactive)	1.61 µM (inactive)	0.294 µM (active)	0.845 µM (active)	2.89 µM (inactive)	–	0.272 µM (active)	4.69	0.518 µM (active)	0.736 µM (active)	3.08 µM (inactive)	0.441 µM (active)	0.605 µM (active)	2.51 µM (inactive)	–	–
COc1cc(OC)c(/C=C2\N=C(C)N(Nc3nnc(NN4C(=O)/C(=C/c5c(OC)cc(OC)cc5OC)N=C4C)c4ccccc34)C2=O)c(OC)c1	> 100 µM (inactive)	> 100 µM (inactive)	> 100 µM (inactive)	93.3 µM (inactive)	> 100 µM (inactive)	> 100 µM (inactive)	> 100 µM (inactive)	> 100 µM (inactive)	> 100	> 100 µM (inactive)	> 100 µM (inactive)	94.4 µM (inactive)	42.3 µM (inactive)	> 100 µM (inactive)	> 100 µM (inactive)	> 100 µM (inactive)	> 100 µM (inactive)
N#C/C(=C\c1c(Cl)cccc1Cl)c1ccccc1	2.88 µM (inactive)	20.1 µM (inactive)	18.7 µM (inactive)	4.43 µM (inactive)	2.4 µM (inactive)	6.92 µM (inactive)	4.69 µM (inactive)	7.8 µM (inactive)	4.16	4.92 µM (inactive)	4.86 µM (inactive)	18.3 µM (inactive)	2.97 µM (inactive)	16.4 µM (inactive)	> 77.4 µM (inactive)	6.12 µM (inactive)	2.63 µM (inactive)
CCN(CC)c1oc(N(CC)CC)c(C(=O)Nc2ccccn2)c(=O)c1C(C)=O	> 100 µM (inactive)	–	–	–	> 100 µM (inactive)	> 100 µM (inactive)	> 100 µM (inactive)	> 100 µM (inactive)	> 100	> 100 µM (inactive)	> 100 µM (inactive)	> 100 µM (inactive)	> 100 µM (inactive)	> 100 µM (inactive)	> 100 µM (inactive)	–	> 100 µM (inactive)
CCCCC(N)CSSCC(N)CCCC (stereo unspecified)	20.3 µM (inactive)	18.2 µM (inactive)	17.6 µM (inactive)	33.3 µM (inactive)	52.7 µM (inactive)	17.7 µM (inactive)	36.7 µM (inactive)	52 µM (inactive)	26.2	17.9 µM (inactive)	49.2 µM (inactive)	25.2 µM (inactive)	30.6 µM (inactive)	37.8 µM (inactive)	20.5 µM (inactive)	–	17.5 µM (inactive)
O=C(CN1CCOCC1)Nc1nc(-c2ccc(Cl)cc2)cs1	21.3 µM (inactive)	25.7 µM (inactive)	22.2 µM (inactive)	25.8 µM (inactive)	31.9 µM (inactive)	25.6 µM (inactive)	28.3 µM (inactive)	24.4 µM (inactive)	29.4	60.3 µM (inactive)	19.5 µM (inactive)	75.2 µM (inactive)	19 µM (inactive)	23.8 µM (inactive)	89.7 µM (inactive)	–	–
COc1cc2c(c(OC)c1OC)[C@@H]1CCCCC[C@@H]1CCC2=O	22.8 µM (inactive)	> 91.8 µM (inactive)	17.7 µM (inactive)	> 100 µM (inactive)	> 48.6 µM (inactive)	> 100 µM (inactive)	> 58.6 µM (inactive)	> 100 µM (inactive)	> 75	> 71.3 µM (inactive)	99.1 µM (inactive)	> 100 µM (inactive)	> 100 µM (inactive)	> 100 µM (inactive)	> 100 µM (inactive)	> 100 µM (inactive)	33.3 µM (inactive)
O=S(=O)(c1ccccc1)n1cc(C[P+](c2ccccc2)(c2ccccc2)c2ccccc2)c2ccccc21	2.43 µM (inactive)	9.95 µM (inactive)	3.57 µM (inactive)	12 µM (inactive)	1.99 µM (inactive)	2.7 µM (inactive)	2.91 µM (inactive)	10.9 µM (inactive)	16.6	5.04 µM (inactive)	3.6 µM (inactive)	3.33 µM (inactive)	3.25 µM (inactive)	2.81 µM (inactive)	17.2 µM (inactive)	6.35 µM (inactive)	5.2 µM (inactive)
CC(CCC(=O)O)c1ccc(Br)cc1 (stereo unspecified)	> 100 µM (inactive)	> 100 µM (inactive)	> 100 µM (inactive)	> 100 µM (inactive)	> 100 µM (inactive)	> 100 µM (inactive)	> 100 µM (inactive)	> 100 µM (inactive)	> 100	> 100 µM (inactive)	> 100 µM (inactive)	> 100 µM (inactive)	> 100 µM (inactive)	> 100 µM (inactive)	> 100 µM (inactive)	> 100 µM (inactive)	> 100 µM (inactive)
CC(=O)c1ccccc1NC(=O)C(=O)C(C(=O)c1ccc2ccccc2c1)C1OC(=O)c2ccccc21 (stereo unspecified)	4.42 µM (inactive)	17.2 µM (inactive)	7.71 µM (inactive)	–	14.9 µM (inactive)	11.3 µM (inactive)	5.43 µM (inactive)	19.3 µM (inactive)	13.7	6.61 µM (inactive)	18.3 µM (inactive)	97.9 µM (inactive)	8.95 µM (inactive)	11.6 µM (inactive)	22.2 µM (inactive)	–	–
C[C@]12Cc3conc3C(O)=C1CC[C@@H]1C2CC[C@@]2(C)C1CC[C@@H]2O (stereo partly specified)	7.62 µM (inactive)	31.6 µM (inactive)	4.5 µM (inactive)	18 µM (inactive)	32.7 µM (inactive)	12.1 µM (inactive)	12.6 µM (inactive)	17.9 µM (inactive)	5.65	16.1 µM (inactive)	12 µM (inactive)	17.5 µM (inactive)	9.77 µM (inactive)	25.8 µM (inactive)	50.2 µM (inactive)	17.4 µM (inactive)	–
CCCCCCCCCCCOc1ccc(C(=O)C(=O)c2ccc(OCCCCCCCCCCC)c(OCCCCCCCCCCC)c2)cc1OCCCCCCCCCCC	> 100 µM (inactive)	> 100 µM (inactive)	> 100 µM (inactive)	> 100 µM (inactive)	> 100 µM (inactive)	> 100 µM (inactive)	> 100 µM (inactive)	> 100 µM (inactive)	> 100	> 100 µM (inactive)	> 100 µM (inactive)	> 100 µM (inactive)	31.3 µM (inactive)	> 100 µM (inactive)	> 100 µM (inactive)	–	–
CC(C)C(Nc1c2ccccc2[n+](C)c2ccccc12)C(=O)O (stereo unspecified)	–	> 100 µM (inactive)	–	> 100 µM (inactive)	> 100 µM (inactive)	–	> 100 µM (inactive)	> 100 µM (inactive)	> 100	> 100 µM (inactive)	> 100 µM (inactive)	> 100 µM (inactive)	> 100 µM (inactive)	> 100 µM (inactive)	> 100 µM (inactive)	> 100 µM (inactive)	> 100 µM (inactive)
CCCC[C@H](CCc1ccccc1)N(C(=O)OC)N1CCC[C@H]1COC	15.5 µM (inactive)	17.5 µM (inactive)	18.3 µM (inactive)	18.7 µM (inactive)	16.3 µM (inactive)	19.9 µM (inactive)	17.1 µM (inactive)	24.8 µM (inactive)	–	21.4 µM (inactive)	18.8 µM (inactive)	17.5 µM (inactive)	35.1 µM (inactive)	27.5 µM (inactive)	17.8 µM (inactive)	18.1 µM (inactive)	24.3 µM (inactive)
NCCCCNc1ccc2c(=O)[nH][nH]c(=O)c2c1	> 100 µM (inactive)	> 100 µM (inactive)	> 100 µM (inactive)	> 100 µM (inactive)	> 100 µM (inactive)	> 100 µM (inactive)	–	> 100 µM (inactive)	–	> 100 µM (inactive)	> 100 µM (inactive)	> 100 µM (inactive)	> 100 µM (inactive)	> 100 µM (inactive)	> 100 µM (inactive)	> 100 µM (inactive)	> 100 µM (inactive)
NC(=S)N1N=C2c3ccccc3CC[C@H]2[C@@H]1c1cccs1	18.8 µM (inactive)	45.2 µM (inactive)	66.5 µM (inactive)	15.8 µM (inactive)	16.5 µM (inactive)	44.3 µM (inactive)	33 µM (inactive)	30.1 µM (inactive)	21.3	43.9 µM (inactive)	26.6 µM (inactive)	38.4 µM (inactive)	–	32.7 µM (inactive)	> 100 µM (inactive)	16.8 µM (inactive)	4.68 µM (inactive)
